{"source": "patent EP4813993A1", "about": "“COMPOUND, PREPARATION METHOD THEREFOR, AND USE THEREOF” (Sichuan Kelun Pharmaceutical Research Institute Co., Ltd., priority 2023, dated 2025)", "key": {"[1]": {"system": "CFA-induced rat inflammatory pain model", "assay": "CFA-induced rat inflammatory pain model, Von Frey test", "type": "in vivo, SD rats", "details": "SD rats CFA, Mean + SEM, n = 10", "experimental": "Experimental Example 9: Pharmacodynamic effect study of compounds in CFA-induced rat inflammatory pain model Experimental animals: SD rats, male, 180-220 g.\n(§1) Compound preparation: 5% (final preparation volume) of DMSO was added to dissolve the test compound, and then 10% (final preparation volume) of Cremophor EL and 85% Saline were sequentially added; an appropriate amount of Celecoxib was weighed, 5% (final preparation volume) of DMSO was added to dissolve the test compound, and then 5% (final preparation volume) of HS-15 and 90% Saline were sequentially added.\nSD rats were anesthetized with isoflurane. The right hind paw was disinfected, a needle was inserted subcutaneously at the posterior plantar aspect, and 50 µL of complete Freund's adjuvant (CFA, 1 mg/mL) was administered via subcutaneous injection at the midplantar region, with the needle withdrawn slowly while rotating to prevent leakage. After modeling, local redness and swelling of the soles of the feet, difficulty in walking, and lifting of the affected feet were observed.\n(§2) 2. Administration and test\n(§3) The Von Frey test was performed once before the surgery. On the second day after animal modeling, animals meeting the baseline requirements were selected for enrollment. The animals were randomly divided into 6 groups based on the 50% PWT values, with 10 animals per group. Administration was performed under a double-blind test protocol. The 50% PWT of the animals was measured separately before administration (baseline) and at 0.5 h, 2 h, and 8 h after administration. The model control group was given normal saline, while the compound groups were given the compounds according to the administration doses in the table below."}, "Nav1.8 channels": {"biological_target": "T1, Nav1.8 channels (Homo sapiens, UniProt Q9Y5Y9)", "T1 construct": "expressed in transfected cells", "T1 sequence (Q9Y5Y9 whole entry, the tested form may be a part)": "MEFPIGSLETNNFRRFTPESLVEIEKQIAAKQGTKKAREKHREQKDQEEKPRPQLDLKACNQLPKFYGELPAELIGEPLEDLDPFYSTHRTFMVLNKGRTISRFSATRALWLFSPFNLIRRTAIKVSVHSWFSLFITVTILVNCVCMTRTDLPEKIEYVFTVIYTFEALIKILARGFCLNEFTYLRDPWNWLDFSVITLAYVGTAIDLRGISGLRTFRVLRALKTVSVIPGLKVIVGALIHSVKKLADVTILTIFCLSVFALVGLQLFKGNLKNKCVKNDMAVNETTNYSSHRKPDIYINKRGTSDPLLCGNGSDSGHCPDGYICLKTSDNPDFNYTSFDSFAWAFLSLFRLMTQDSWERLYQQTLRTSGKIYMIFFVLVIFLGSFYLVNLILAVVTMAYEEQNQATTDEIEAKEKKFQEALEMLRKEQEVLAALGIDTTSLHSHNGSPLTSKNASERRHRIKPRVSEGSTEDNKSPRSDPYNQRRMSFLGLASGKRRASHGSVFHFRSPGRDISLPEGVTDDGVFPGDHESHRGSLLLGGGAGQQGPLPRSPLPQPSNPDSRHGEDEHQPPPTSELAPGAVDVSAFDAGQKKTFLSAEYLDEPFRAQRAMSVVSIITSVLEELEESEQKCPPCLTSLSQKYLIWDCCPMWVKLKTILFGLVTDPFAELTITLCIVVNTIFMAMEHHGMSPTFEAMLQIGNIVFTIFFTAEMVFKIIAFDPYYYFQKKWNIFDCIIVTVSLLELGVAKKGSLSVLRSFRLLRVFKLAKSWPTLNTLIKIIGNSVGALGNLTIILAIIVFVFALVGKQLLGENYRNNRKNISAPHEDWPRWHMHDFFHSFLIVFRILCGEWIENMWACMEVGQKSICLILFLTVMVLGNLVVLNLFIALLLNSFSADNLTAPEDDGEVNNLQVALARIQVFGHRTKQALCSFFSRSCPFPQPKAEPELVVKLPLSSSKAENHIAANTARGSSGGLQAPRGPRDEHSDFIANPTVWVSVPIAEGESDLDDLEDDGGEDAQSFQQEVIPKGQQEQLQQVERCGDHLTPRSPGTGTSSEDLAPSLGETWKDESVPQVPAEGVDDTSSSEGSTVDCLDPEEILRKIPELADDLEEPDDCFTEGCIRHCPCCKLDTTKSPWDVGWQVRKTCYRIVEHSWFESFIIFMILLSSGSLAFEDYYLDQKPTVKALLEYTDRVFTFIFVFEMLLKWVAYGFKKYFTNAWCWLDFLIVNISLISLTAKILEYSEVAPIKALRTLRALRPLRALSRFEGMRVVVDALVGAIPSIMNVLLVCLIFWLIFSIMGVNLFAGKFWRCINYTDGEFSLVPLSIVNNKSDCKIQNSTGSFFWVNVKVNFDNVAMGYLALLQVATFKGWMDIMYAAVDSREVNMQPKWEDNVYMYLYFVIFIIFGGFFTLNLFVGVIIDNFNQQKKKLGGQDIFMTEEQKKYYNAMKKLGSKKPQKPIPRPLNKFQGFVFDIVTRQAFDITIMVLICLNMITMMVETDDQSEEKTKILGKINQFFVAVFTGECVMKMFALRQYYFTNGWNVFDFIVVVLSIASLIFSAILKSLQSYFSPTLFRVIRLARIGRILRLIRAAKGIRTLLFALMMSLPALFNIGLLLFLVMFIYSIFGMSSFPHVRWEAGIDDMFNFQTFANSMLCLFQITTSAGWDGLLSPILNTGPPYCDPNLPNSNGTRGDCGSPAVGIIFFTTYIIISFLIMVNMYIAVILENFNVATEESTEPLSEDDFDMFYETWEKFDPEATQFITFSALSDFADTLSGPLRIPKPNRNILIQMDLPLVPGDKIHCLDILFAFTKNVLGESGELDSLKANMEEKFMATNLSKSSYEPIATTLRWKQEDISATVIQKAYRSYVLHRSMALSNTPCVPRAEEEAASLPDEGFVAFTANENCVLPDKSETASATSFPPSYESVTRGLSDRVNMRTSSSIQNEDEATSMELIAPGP", "assay": "Manual patch-clamp, current of stably overexpressed Nav1.8 channels (resting state voltage program)", "type": "cell-based", "how_it_was_run": "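Whole-cell manual patch clamp on cells stably overexpressing Nav1.8, held at -120 mV and stepped to 0 mV for 50 ms every 20 s (resting-state protocol). Compounds were perfused in ascending concentrations, each for 5 min or until stable; block of peak current was calculated at steady state.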"}, "[2]": {"system": "acetic acid writhing model", "assay": "Mouse acetic acid writhing model", "type": "in vivo, ICR mice", "details": "for Number of writhing responses: 60 min before 0.8% acetic acid i.p., 30 min observation, Mean + SD, n = 10", "experimental": "Experimental Example 11: Pharmacodynamic effect study of compounds in mouse acetic acid writhing model\nExperimental animals: ICR mice, male, 20-24 g.\nas §1, with “Etoricoxib” for “Celecoxib”\n• 1. The mice were randomly grouped based on the body weight for model establishment, with 10 animals per group. A 0.8% (v/v) acetic acid solution was intraperitoneally injected at an injection volume of 10 mL/kg. • 2. Administration and test\nAdministration was performed 60 min before modeling. After the acetic acid solution was injected, the number of writhing responses in mice was observed. […] The number of writhing responses was observed and recorded during two intervals: 0-15 min and 15-30 min, with a total observation duration of 30 min. Inhibition rate = (number of writhing responses in control group - number of writhing responses in administration group)/number of writhing responses in control group × 100%. The model control group was given normal saline, the positive control group 1 was given etoricoxib at 20 mg/kg, the positive control group 2 was given VX-548 at 50 mg/kg, and the remaining groups were given the compounds of the present disclosure according to the administration doses in the table below."}, "[3]": {"assay": "Pharmacokinetic study in ICR mice", "type": "in vivo", "details": "male, mouse, plasma", "experimental": "Experimental Example 3: Pharmacokinetic study of compounds in ICR mice\n(§4) Experimental animals: ICR mice, male, 6-8 weeks old.\n(§5) Compound preparation: 5% (final preparation volume) of DMSO was added to dissolve the test compound, and then 10% (final preparation volume) of Cremophor EL and 85% Saline were sequentially added.\nThe injection group was given free access to food and water. The oral group was fasted overnight (> 12 h) with free access to water, and was fed 4 h after administration. Blood samples were collected from the jugular vein of ICR mice at the following time points: 5 min, 15 min, 0.5 h, 1 h, 2 h, 4 h, 8 h, and 24 h after injection administration; 15 min, 0.5 h, 1 h, 2 h, 4 h, 6 h, 8 h, and 24 h after oral administration. The collected blood samples were anticoagulated, placed in an ice bath, and then centrifuged for 5 min to separate plasma. The plasma was stored at -70 °C for analysis.\nSample test: The concentrations of the designated compound drugs in plasma were determined by the LC-MS/MS method; the main pharmacokinetic parameters were calculated using the Winnolin 8.3 non-compartmental model. Pharmacokinetic test results of some compounds of the present disclosure in ICR mice"}, "[4]": {"assay": "Tissue distribution study (dorsal root ganglia) in ICR mice", "type": "in vivo", "details": "male, mouse, oral administration 20 mg/kg", "experimental": "Experimental Example 4: Tissue distribution study of compounds in ICR mice\nas §4, §5\nExperimental design: The test compounds were administered to ICR mice as a single dose via oral administration (20 mg/kg; n = 3, 3 time points). Blood samples were collected at 0.25 h, 2 h, and 12 h after oral administration, followed by sacrifice of the animals. Dorsal root ganglia (DRG) were collected, rinsed with ice-cold normal saline to remove residual blood, blotted dry with absorbent paper, and stored at -70 °C for analysis.\nSample test: The concentrations of the compound drugs in dorsal root ganglia were determined by the LC-MS/MS method."}, "formalin pain model": {"system": "formalin pain model", "assay": "Rat formalin pain model", "type": "in vivo, SD rats", "details": "SD rats, 125 mg/kg p.o. 120 min before 5% formalin, Mean + SD, n = 10", "experimental": "Experimental Example 10: Pharmacodynamic effect study of compounds in rat formalin pain model\nExperimental animals: SD rats, male, 180-200 g.\nas §1, with “Etoricoxib” for “Celecoxib”, “added; the tramadol injection was diluted with normal saline to the desired concentration.” for “added.”\nEach group consisted of 10 animals, and 50 µL of a 5% formalin solution was injected using a microsyringe into the right plantar region.\nas §2\nBased on different pharmacokinetic properties of the drugs, the administration was performed at 0 min, 60 min, and 120 min before modeling. After injection of the formalin, the number of pain responses in the rats was observed. […] Spontaneous pain responses were observed once every 5 min, and the number of pain responses in the rats within 1 min was counted, with a total observation duration of 60 min. Inhibition rate = (number of pain responses in control group - number of pain responses in administration group)/number of pain responses in control group × 100%.\nTable 12. Administration information of compounds of the present disclosure in rat formalin model"}, "incision pain model": {"system": "incision pain model", "assay": "Incision pain model in SD rats, Von Frey test", "type": "in vivo", "details": "SD rats, Mean + SEM, n = 10", "experimental": "Experimental Example 7: Pharmacodynamic effect study of compounds in incision pain model in SD rats\nExperimental animals: SD rats, male, 180-220 g.\nas §5\nA plantar incision pain model was established in rats via surgery before the administration and test. Rats were placed in an anesthesia induction chamber and given 3%-4% isoflurane for anesthesia induction. After the anesthesia induction, a breathing mask was applied, and the isoflurane concentration was adjusted to 1%-2% to prevent the rats from suffering pain during the surgery. Each rat was placed in a supine position, and the surgical site was disinfected with alcohol and iodophor. Under sterile conditions, a 0.5 cm longitudinal incision was made on the left hind paw surface, 0.2 cm away from the heel, extending toward the toes. The skin and fascia were incised; the plantar muscle was separated, slightly lifted, and longitudinally incised. The skin was then sutured with 5-0 sutures and disinfected.\nas §2\nas §3, with “modeling, the test was repeated, and” for “modeling,”, “h, 4 h, 6 h, or” for “h, and”, “after administration, and a single dose was administered.” for “after administration.”"}}, "data": [{"smiles": "Cc1ccc(-c2cc(C(F)(F)F)nn2-c2ccc(S(N)(=O)=O)cc2)cc1", "note": "[Celecoxib, reference compound]", "values": [{"measurement": "PWT 50% value (g) Post-surgery, Preadministration", "setting": "[1]; 80 mg/kg group, baseline before administration", "result": "3.12 ± 1.14", "unit": "g"}, {"measurement": "PWT 50% value (g) Pre-surgery", "setting": "[1]; 80 mg/kg group, baseline before modeling", "result": "11.74 ± 2.33", "unit": "g"}, {"measurement": "PWT 50% value (g) Time 0.5 h", "setting": "[1]; 80 mg/kg, 0.5 h after administration", "result": "5.91 ± 4.09", "unit": "g"}, {"measurement": "PWT 50% value (g) Time 2 h", "setting": "[1]; 80 mg/kg, 2 h after administration", "result": "4.66 ± 1.69", "unit": "g"}, {"measurement": "PWT 50% value (g) Time 8 h", "setting": "[1]; 80 mg/kg, 8 h after administration", "result": "3.4 ± 1.38", "unit": "g"}, {"measurement": "PWT 50% value (g) AUC0-8h", "setting": "[1]; 80 mg/kg", "result": "40.7 ± 15.63", "unit": "g"}]}, {"smiles": "COc1c([C@@H]2C[C@](C)(C(F)(F)F)S[C@H]2C(=O)Nc2ccc3c(c2)COB3O)ccc(F)c1F", "note": "[Compound 119-A, (2R,3S,5R)-3-(3,4-difluoro-2-methoxyphenyl)-N-(1-hydroxy-1,3-dihydrobenzo[c][1,2]oxaborol-5-yl)-5-methyl-5-(trifluoromethyl)tetrahydrothiophene-2-carboxamide]", "values": [{"measurement": "IC50", "setting": "Nav1.8 channels", "result": 0.49, "unit": "nM"}, {"measurement": "Number of writhing responses", "setting": "[2]; ICR mice, Dose 50 mg/kg", "result": "18 ± 15"}, {"measurement": "inhibition of the writhing effect compared with VX-548", "setting": "[2]; mouse acetic acid writhing model", "result": "better than VX-548"}, {"measurement": "AUC(0-inf)", "setting": "[3]; Oral administration (p.o.), 20 mg/kg", "result": 6740, "unit": "ng·h/mL"}, {"measurement": "AUC(0-inf)", "setting": "[3]; iv, Injection (i.v.), 2 mg/kg", "result": 842, "unit": "ng·h/mL"}, {"measurement": "concentration at 0.25 h", "setting": "[4]; Time 0.25 h", "result": 875, "unit": "ng/g"}, {"measurement": "concentration at 2 h", "setting": "[4]; Time 2 h", "result": 2580, "unit": "ng/g"}, {"measurement": "concentration at 12 h", "setting": "[4]; Time 12 h", "result": 199, "unit": "ng/g"}]}, {"smiles": "COc1c([C@H]2[C@H](C(=O)Nc3ccnc(C(N)=O)c3)O[C@@](C)(C(F)(F)F)[C@H]2C)ccc(F)c1F", "note": "[VX-548, reference compound]", "values": [{"measurement": "Number of writhing responses", "setting": "[2]; ICR mice, Dose 50 mg/kg", "result": "29±16"}, {"measurement": "Inhibition rate (%)", "setting": "[2]; ICR mice, Dose 50 mg/kg, inhibition of writhing responses vs control group", "result": 41.24, "unit": "%"}, {"measurement": "Number of pain responses 0 min", "setting": "formalin pain model; 0 min", "result": "24.3±8.5"}, {"measurement": "Number of pain responses 10 min", "setting": "formalin pain model; 10 min", "result": "2.4±2.8"}, {"measurement": "Number of pain responses 15 min", "setting": "formalin pain model; 15 min", "result": "8.8±6.4"}, {"measurement": "Number of pain responses 30 min", "setting": "formalin pain model; 30 min", "result": "13.2±6.3"}, {"measurement": "Number of pain responses 40 min", "setting": "formalin pain model; 40 min", "result": "10.1±6.9"}, {"measurement": "Number of pain responses 50 min", "setting": "formalin pain model; 50 min", "result": "4.1±4.7"}, {"measurement": "Number of pain responses 60 min", "setting": "formalin pain model; 60 min", "result": "4.7±5.6"}, {"measurement": "PWT 50% value (g) Post-surgery, Preadministration", "setting": "incision pain model; 125 mg/kg group, baseline before administration", "result": "3.95 ± 1.19", "unit": "g"}, {"measurement": "PWT 50% value (g) Pre-surgery", "setting": "incision pain model; 125 mg/kg group, baseline before surgery", "result": "14.09 ± 1.46", "unit": "g"}, {"measurement": "PWT 50% value (g) Time 0.5 h", "setting": "incision pain model; 125 mg/kg single dose, 0.5 h after administration", "result": "7.61 ± 5.9", "unit": "g"}, {"measurement": "PWT 50% value (g) Time 2 h", "setting": "incision pain model; 125 mg/kg single dose, 2 h after administration", "result": "8.97 ± 3.33", "unit": "g"}, {"measurement": "PWT 50% value (g) Time 6 h", "setting": "incision pain model; 125 mg/kg single dose, 6 h after administration", "result": "6.27 ± 2.34", "unit": "g"}, {"measurement": "PWT 50% value (g) Time 8 h", "setting": "incision pain model; 125 mg/kg single dose, 8 h after administration", "result": "5.89 ± 2.07", "unit": "g"}, {"measurement": "PWT 50% value (g) AUC0-8h", "setting": "incision pain model; 125 mg/kg single dose", "result": "58.66 ± 10.33", "unit": "g"}]}]}
